Patent US8314256B2, “Modulators of ATP-binding cassette transporters” (Vertex Pharmaceuticals Incorporated, priority 2005, dated 2012)

Target: T1, ΔF508-CFTR (Homo sapiens, UniProt P13569, DEL508-508)
T1 construct: expressed in transfected cells
Test: Membrane potential optical assay of ΔF508-CFTR modulation (Table 3 EC50; the table does not name the assay)
Assay type: cell-based
From the text: Membrane Potential Optical Methods for Assaying ΔF508-CFTR Modulation Properties of Compounds
The optical membrane potential assay utilized voltage-sensitive FRET sensors described by Gonzalez and Tsien (See, Gonzalez, J. E. and R. Y. Tsien (1995) “Voltage sensing by fluorescence resonance energy transfer in single cells” Biophys J 69(4): 1272-80, and Gonzalez, J. E. and R. Y. Tsien (1997) “Improved indicators of cell membrane potential that use fluorescence resonance energy transfer” Chem Biol 4(4): 269-77) in combination with instrumentation for measuring fluorescence changes such as the Voltage/Ion Probe Reader (VIPR) (See, Gonzalez, J. E., K. Oades, et al. (1999) “Cell-based assays and instrumentation for screening ion-channel targets” Drug Discov Today 4(9): 431-439).
These voltage sensitive assays are based on the change in fluorescence resonant energy transfer (FRET) between the membrane-soluble, voltage-sensitive dye, DiSBAC2(3), and a fluorescent phospholipid, CC2-DMPE, which is attached to the outer leaflet of the plasma membrane and acts as a FRET donor. Changes in membrane potential (Vm) cause the negatively charged DiSBAC2(3) to redistribute across the plasma membrane and the amount of energy transfer from CC2-DMPE changes accordingly. The changes in fluorescence emission were monitored using VIPR II, which is an integrated liquid handler and fluorescent detector designed to conduct cell-based screens in 96- or 384-well microtiter plates.
Identification of Correction Compounds
To identify small molecules that correct the trafficking defect associated with ΔF508-CFTR; a single-addition HTS assay format was developed. The cells were incubated in serum-free medium for 16 hrs at 37° C. in the presence or absence (negative control) of test compound. As a positive control, cells plated in 384-well plates were incubated for 16 hrs at 27° C. to “temperature-correct” ΔF508-CFTR. The cells were subsequently rinsed 3× with Krebs Ringers solution and loaded with the voltage-sensitive dyes. To activate ΔF508-CFTR, 10 μM forskolin and the CFTR potentiator, genistein (20 μM), were added along with Cl^−-free medium to each well. The addition of Cl^−-free medium promoted Cl^− efflux in response to ΔF508-CFTR activation and the resulting membrane depolarization was optically monitored using the FRET-based voltage-sensor dyes.
Identification of Potentiator Compounds
To identify potentiators of ΔF508-CFTR, a double-addition HTS assay format was developed. During the first addition, a Cl^−-free medium with or without test compound was added to each well. After 22 sec, a second addition of Cl^−-free medium containing 2-10 μM forskolin was added to activate ΔF508-CFTR. The extracellular Cl^− concentration following both additions was 28 mM, which promoted Cl^− efflux in response to ΔF508-CFTR activation and the resulting membrane depolarization was optically monitored using the FRET-based voltage-sensor dyes. Solutions
NIH3T3 mouse fibroblasts stably expressing ΔF508-CFTR are used for optical measurements of membrane potential. The cells are maintained at 37° C. in 5% CO2 and 90% humidity in Dulbecco's modified Eagle's medium supplemented with 2 mM glutamine, 10% fetal bovine serum, 1×NEAA, […]-ME, 1× pen/strep, and 25 mM HEPES in 175 cm^2 culture flasks. For all optical assays, the cells were seeded at 30,000/well in 384-well matrigel-coated plates and cultured for 2 hrs at 37° C. before culturing at 27° C. for 24 hrs. for the potentiator assay. For the correction assays, the cells are cultured at 27° C. or 37° C. with and without compounds for 16-24 hours

T1 sequence (P13569 with tags, fused parts or gaps DEL508-508): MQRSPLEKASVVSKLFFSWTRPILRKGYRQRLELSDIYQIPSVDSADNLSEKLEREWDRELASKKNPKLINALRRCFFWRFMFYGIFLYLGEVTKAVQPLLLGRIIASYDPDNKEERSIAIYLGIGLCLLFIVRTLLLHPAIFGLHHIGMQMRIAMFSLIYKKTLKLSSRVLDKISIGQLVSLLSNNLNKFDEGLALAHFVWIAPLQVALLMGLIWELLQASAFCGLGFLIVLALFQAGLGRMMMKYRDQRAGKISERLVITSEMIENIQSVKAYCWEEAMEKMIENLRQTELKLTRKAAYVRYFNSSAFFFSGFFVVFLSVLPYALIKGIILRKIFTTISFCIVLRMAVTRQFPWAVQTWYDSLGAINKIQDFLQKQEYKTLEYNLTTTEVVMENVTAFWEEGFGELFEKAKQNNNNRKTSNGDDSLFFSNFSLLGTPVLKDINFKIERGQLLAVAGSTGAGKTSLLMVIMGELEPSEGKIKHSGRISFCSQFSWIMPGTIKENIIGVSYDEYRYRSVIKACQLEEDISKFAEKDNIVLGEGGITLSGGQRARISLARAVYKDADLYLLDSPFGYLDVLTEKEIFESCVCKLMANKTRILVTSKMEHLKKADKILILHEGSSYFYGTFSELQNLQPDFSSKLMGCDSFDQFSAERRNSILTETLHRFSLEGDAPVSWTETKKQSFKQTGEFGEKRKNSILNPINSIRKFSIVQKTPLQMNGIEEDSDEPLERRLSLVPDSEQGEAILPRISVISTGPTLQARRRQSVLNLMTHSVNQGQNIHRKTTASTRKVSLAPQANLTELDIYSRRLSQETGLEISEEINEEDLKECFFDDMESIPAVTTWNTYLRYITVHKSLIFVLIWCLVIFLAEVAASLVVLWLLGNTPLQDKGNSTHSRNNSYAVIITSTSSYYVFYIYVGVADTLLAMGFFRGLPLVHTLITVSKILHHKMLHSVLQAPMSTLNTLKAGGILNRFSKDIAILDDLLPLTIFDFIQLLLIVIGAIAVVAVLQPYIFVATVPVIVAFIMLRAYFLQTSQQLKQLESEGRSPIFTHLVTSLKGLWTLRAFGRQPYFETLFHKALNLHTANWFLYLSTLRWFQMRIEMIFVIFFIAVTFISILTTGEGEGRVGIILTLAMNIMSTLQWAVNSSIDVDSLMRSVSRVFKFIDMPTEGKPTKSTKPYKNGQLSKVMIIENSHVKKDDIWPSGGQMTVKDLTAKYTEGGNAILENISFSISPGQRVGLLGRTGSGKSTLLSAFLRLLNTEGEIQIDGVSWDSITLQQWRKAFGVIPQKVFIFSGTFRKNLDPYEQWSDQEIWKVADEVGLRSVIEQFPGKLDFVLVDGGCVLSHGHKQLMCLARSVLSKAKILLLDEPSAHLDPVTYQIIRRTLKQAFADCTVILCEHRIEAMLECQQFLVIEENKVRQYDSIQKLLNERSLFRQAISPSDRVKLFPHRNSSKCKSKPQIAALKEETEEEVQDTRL

| Compound | EC50 [nM] |
| --- | --- |
| CC(=O)Nc1ccc(OCCCNC(=O)C(=O)c2c[nH]c3ccc(Br)cc23)cc1 [Compound 8] | 1000 to 5000 |
| O=C(NCc1ccccc1)C(=O)c1c[nH]c2ccccc12 [Compound 6] | < 1000 |
| COc1ccc(CCNC(=O)C(=O)c2c[nH]c3ccc(Br)cc23)cc1 [Compound 13] | 1000 to 5000 |
| Cn1cc(C(=O)C(=O)NCCc2ccccc2)c2ccccc21 [Compound 10, 2-(1-Methyl-1H-indol-3-yl)-2-oxo-N-phenethyl-acetamide] | > 5000 |
| COc1ccccc1N1CCN(C(=O)C(=O)c2c[nH]c3ccc(Br)cc23)CC1 [Compound 7] | 1000 to 5000 |
| Cc1ccc(Cn2cc(SCCNC(=O)C(=O)c3c[nH]c4ccccc34)c3ccccc32)cc1 [Compound 3] | < 1000 |
| O=C(NCCc1ccccc1)C(=O)c1c[nH]c2ccccc12 [Compound 2, 2-(1H-Indol-3-yl)-2-oxo-N-phenethyl-acetamide] | < 1000 |
| Cn1cc(C(=O)C(=O)NC(c2ccccc2)c2ccccc2)c2ccccc21 [Compound 12, N-Benzhydryl-2-(1-methyl-1H-indol-3-yl)-2-oxo-acetamide] | > 5000 |
| O=C(NC(CN1CCOCC1)c1ccccc1)C(=O)c1c[nH]c2ccccc12 (centres unmarked) [Compound 4] | > 5000 |
| O=C(NCCc1ccccc1)C(=O)c1c[nH]c2ccc(Br)cc12 [Compound 16] | < 1000 |
| Cn1cc(C(=O)C(=O)NCc2ccccc2)c2ccccc21 [Compound 9] | > 5000 |

Next, values leading:

| EC50 [nM] | Compound |
| --- | --- |
| > 5000 | CN(Cc1ccccc1)C(=O)C(=O)c1c[nH]c2ccccc12 [Compound 14, N-Benzyl-2-(1H-indol-3-yl)-N-methyl-2-oxo-acetamide] |
| < 1000 | O=C(NC(c1ccccc1)c1ccccc1)C(=O)c1c[nH]c2ccccc12 [Compound 1, N-Benzhydryl-2-(1H-indol-3-yl)-2-oxo-acetamide] |
| 1000 to 5000 | O=C(NC(CSCc1ccccc1)CSCc1ccccc1)C(=O)c1c[nH]c2ccccc12 [Compound 17] |
| < 1000 | O=C(C(=O)N(Cc1ccccc1)Cc1ccccc1)c1c[nH]c2ccccc12 [Compound 5, N,N-Dibenzyl-2-(1H-indol-3-yl)-2-oxo-acetamide] |
| 1000 to 5000 | Cn1cc(C(=O)C(=O)N(Cc2ccccc2)Cc2ccccc2)c2ccccc21 [Compound 15, N,N-Dibenzyl-2-(1-methyl-1H-indol-3-yl)-2-oxo-acetamide] |
| < 1000 | O=C(NCC(c1ccccc1)c1ccccc1)C(=O)c1c[nH]c2ccccc12 [Compound 18, N-(2,2-Diphenylethyl)-2-(1H-indol-3-yl)-2-oxo-acetamide] |
